Laboratory results taken from US10522239B2, “Small molecule binding pockets in nucleic acids” (Nymirum, Inc., priority 2012, dated 2019).

Biological target: pre-miR-122 loop
Assay: NMR titration binding screen against pre-miR-122 loop
Design: species or system human
Conditions: NMR titration experiments
Source text: The apical loop sequence of human pre-miR 122 RNA sequence was investigated as an example. Two base pairs at the 5′- and 3′-ends of the sequence were modified from the native pre-miR 122 sequence in order to stabilize the 24-mer stem loop construct for NMR studies (5′-[…]-3′) (SEQ ID NO: 2).
Because pre-miR-122 is cleaved near the helix-apical loop interface, the apical loop was targeted to identify binding pockets. […] Given the size and plasticity of the loop, it was hypothesized that the loop could assume different conformations to bind small molecules. To identify small molecule binding pockets, each of the 60 small molecules in Nymirum's small molecule library was screened against the pre-miR-122 loop using NMR titration experiments. Two small molecules, NC1404 (9-aminoacridine) and NC1444 (L-arg-p-nitroanilide), were identified to bind with Kds of 71.7±9.0 μM and 17.6±3.25 μM respectively (FIGS. 12A and 12B). Using the same procedure detailed for A-site, bound-state chemical shifts for NC1404 and NC1444 were measured, used to solve a bound-state pre-miR-122 structure and a binding pocket for each compound was identified (FIGS. 12A and 12B). […]

Row | Kd [µM] | SMILES
1 | 71.7 ± 9 | Nc1c2ccccc2nc2ccccc12 [NC1404, 9-aminoacridine]
2 | 17.6 ± 3.25 | N=C(N)NCCC[C@H](N)C(=O)Nc1ccc([N+](=O)[O-])cc1 [NC1444, L-arg-p-nitroanilide]
